According to ChEMBL document CHEMBL1201862, “PubChem BioAssay data set” (2004):
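Five compound concentrations were applied to cells in 96-well plates for 48 hours; endpoints were derived by simple linear interpolation of the resulting dose-response curve. Here, GI50 denotes the concentration required for 50% inhibition of growth.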 Active and inactive are the calls of the source. No stated cut-off is given here; in the data, active = GI50 up to about 1.1 µM and inactive = higher. Where a SMILES comes first, the peptide text is derived from it. [ ]: non-standard residue; d: D form. The star is where a group is joined. Phe(4-NO2) = N[CH](Cc1ccc([N+](=O)[O-])cc1)C(=O)O; Cbz = O=C(OCc1ccccc1)*

Experiments:
Assay in all cases: NCI-60 cell line screen, 48 h
TK-10 = tested on: TK-10
SF-268 = tested on: SF-268
ACHN = tested on: ACHN
T47D = tested on: T47D
U-251 = tested on: U-251
PC-3 = tested on: PC-3
K562 = tested on: K562
SK-MEL-5 = tested on: SK-MEL-5
A549 = tested on: A549
OVCAR-4 = tested on: OVCAR-4
SK-MEL-28 = tested on: SK-MEL-28
RXF 393 = tested on: RXF 393
SF-539 = tested on: SF-539
SNB-19 = tested on: SNB-19
RPMI-8226 = tested on: RPMI-8226
LOX IMVI = tested on: LOX IMVI
A498 = tested on: A498
MDA-N = tested on: MDA-N
SN12C = tested on: SN12C

| SMILES | GI50 (TK-10) | GI50 (SF-268) | GI50 (ACHN) | GI50 (T47D) | GI50 (U-251) | GI50 (PC-3) | GI50 (K562) | GI50 (SK-MEL-5) | GI50 (A549) | GI50 (OVCAR-4) | GI50 (SK-MEL-28) | GI50 (RXF 393) | GI50 (SF-539) | GI50 (SNB-19) | GI50 (RPMI-8226) | GI50 (LOX IMVI) | GI50 (A498) | GI50 (MDA-N) | GI50 (SN12C) |
| --- | --- | --- | --- | --- | --- | --- | --- | --- | --- | --- | --- | --- | --- | --- | --- | --- | --- | --- | --- |
| O=[N+]([O-])c1ccc(/C=C(/c2ccc([N+](=O)[O-])o2)S(=O)(=O)c2ccccc2)cc1 | > 100 µM (inactive) | 95.9 µM (inactive) | > 100 µM (inactive) | > 100 µM (inactive) | 73.5 µM (inactive) | > 100 µM (inactive) | 36.2 µM (inactive) | 13.9 µM (inactive) | > 100 µM (inactive) | 57 µM (inactive) | > 100 µM (inactive) | > 100 µM (inactive) | 33.7 µM (inactive) | 73.5 µM (inactive) | 13.7 µM (inactive) |  |  |  |  |
| COc1ccc(-c2c(N)n(-c3nc4ccccc4s3)c(=O)c3cc([N+](=O)[O-])ccc23)cc1 | 38.1 µM (inactive) | 17.2 µM (inactive) | 22 µM (inactive) |  | 7.6 µM (inactive) | 30.8 µM (inactive) | 23.2 µM (inactive) |  | 11.2 µM (inactive) | 24.1 µM (inactive) | > 100 µM (inactive) | 14.2 µM (inactive) | 5.83 µM (inactive) | 40.1 µM (inactive) | 1.81 µM (inactive) | 14.9 µM (inactive) | 74 µM (inactive) | 70.5 µM (inactive) |  |
| CCSC(=O)/C=C1\CN(C(=O)OC(C)(C)C)C1C(=O)OC(C)(C)C (configuration not stated) | 2.59 µM (inactive) | 4.32 µM (inactive) | 3.63 µM (inactive) | 4.34 µM (inactive) | 6.19 µM (inactive) | 4.94 µM (inactive) | 1.91 µM (inactive) | 3.37 µM (inactive) | 12.1 µM (inactive) | 2.38 µM (inactive) | 1.86 µM (inactive) | 1.91 µM (inactive) | 3.03 µM (inactive) | 12.1 µM (inactive) | 1.87 µM (inactive) | 1.45 µM (inactive) | 11.2 µM (inactive) |  | 1.86 µM (inactive) |
| CCOC1NC(=O)Oc2cc3ccccc3cc21 (configuration not stated) | > 100 µM (inactive) | > 100 µM (inactive) | > 100 µM (inactive) | 39.6 µM (inactive) | 36.1 µM (inactive) | 29 µM (inactive) | 40.6 µM (inactive) | > 100 µM (inactive) | > 100 µM (inactive) | > 100 µM (inactive) | > 100 µM (inactive) | > 100 µM (inactive) | 68.1 µM (inactive) | 64.3 µM (inactive) | 95.9 µM (inactive) | 67.1 µM (inactive) |  | > 100 µM (inactive) | > 100 µM (inactive) |
| Oc1c2cc(Cl)cc1COCc1cc(Cl)cc(c1O)COCc1cc(Cl)cc(c1O)COC2 | 46.8 µM (inactive) |  | > 100 µM (inactive) | 15.7 µM (inactive) | 29.4 µM (inactive) | > 100 µM (inactive) | 67.5 µM (inactive) | > 100 µM (inactive) | 34.8 µM (inactive) | 23 µM (inactive) | > 100 µM (inactive) | 18.3 µM (inactive) |  | 28 µM (inactive) | > 100 µM (inactive) | 36.7 µM (inactive) | 82.8 µM (inactive) |  |  |
| CNC(=O)OCc1nc(N=[N+]=[N-])n(C)c1COC(=O)NC | 32.2 µM (inactive) | 32.1 µM (inactive) | 33.4 µM (inactive) |  | 31.3 µM (inactive) | 96.2 µM (inactive) | 46.5 µM (inactive) | > 10 µM (inactive) | 61.7 µM (inactive) | 37.1 µM (inactive) | > 100 µM (inactive) | 21.7 µM (inactive) | 54.5 µM (inactive) |  | 28.6 µM (inactive) | 60.8 µM (inactive) | 32.3 µM (inactive) | 60.4 µM (inactive) | 55.7 µM (inactive) |
| Nc1ccc(-c2nc3ccc(F)cc3s2)cc1Cl | < 0.01 µM (active) | 35.3 µM (inactive) | > 100 µM (inactive) |  | > 65.5 µM (inactive) | > 100 µM (inactive) | > 100 µM (inactive) | > 100 µM (inactive) | > 100 µM (inactive) | 0.0174 µM (active) | > 100 µM (inactive) | > 41.5 µM (inactive) | 53.5 µM (inactive) | > 62.2 µM (inactive) | > 100 µM (inactive) | > 73.1 µM (inactive) | 0.402 µM (active) | > 100 µM (inactive) | > 100 µM (inactive) |
| CCOC(=O)CCC(NC(=O)OCc1ccccc1)C(=O)NC(CCC(=O)OCC)C(=O)NC(Cc1ccc([N+](=O)[O-])cc1)C(=O)NC(CCC(=O)OCC)C(=O)NC(CCC(=O)OCC)C(=O)OCC (configuration not stated) (Cbz-E(OEt)E(OEt)[Phe(4-NO2)]E(OEt)E(OEt)-OEt; configuration not given here) | > 100 µM (inactive) |  | > 100 µM (inactive) | > 100 µM (inactive) | > 100 µM (inactive) | > 100 µM (inactive) |  | > 100 µM (inactive) | > 100 µM (inactive) | > 100 µM (inactive) | > 100 µM (inactive) | > 100 µM (inactive) |  | > 100 µM (inactive) | > 100 µM (inactive) | > 100 µM (inactive) |  | > 100 µM (inactive) | > 100 µM (inactive) |
